{"source": "patent US5686454A", "about": "“Camphorcarbonyl” (Merck & Co., Inc., priority 1996, dated 1997)", "molecular_target": "T1, uterine OT receptors (Rattus norvegicus, UniProt P70536)", "T1 construct": "crude membrane preparation of uteri; from tissue; host or cells: uterus of DES-treated rats, crude membranes", "T1 sequence (P70536 1-388)": "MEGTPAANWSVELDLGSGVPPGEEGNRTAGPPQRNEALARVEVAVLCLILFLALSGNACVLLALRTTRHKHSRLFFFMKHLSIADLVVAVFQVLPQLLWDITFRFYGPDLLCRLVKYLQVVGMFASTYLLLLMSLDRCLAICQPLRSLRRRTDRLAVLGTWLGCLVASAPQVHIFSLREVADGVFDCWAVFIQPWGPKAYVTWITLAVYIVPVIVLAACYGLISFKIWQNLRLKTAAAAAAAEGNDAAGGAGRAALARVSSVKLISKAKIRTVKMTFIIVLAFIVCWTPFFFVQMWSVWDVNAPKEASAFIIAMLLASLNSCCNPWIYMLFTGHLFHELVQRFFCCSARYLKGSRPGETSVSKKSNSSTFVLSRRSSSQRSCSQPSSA", "assay": "Radioligand binding: competition of [^3 H]oxytocin binding to rat uterine membranes", "conditions": "for IC50: 1 nM [^3 H]OT, rat uterus membranes, 60 minutes, 22° C., pH 7.4, read-out: IC50; for inhibition at 1 µM: read-out: % inhibition at 1000 nM; for inhibition at 0.1 µM: read-out: % inhibition at 100 nM", "from_the_text": "RADIOGLIGAND BINDING ASSAYS\nThe high affinity binding of [^3 H]", "data": [{"compound": "CCOC(=O)CN1CCCC(C(=O)NCC(C)C2(O)CC3CCC2(CS(=O)(=O)N2CCN(c4ccccc4C)CC2)C3(C)C)C1", "note": "(stereo not drawn) [Example 86, 1-((7,7-Dimethyl-2-exo-hydroxy-2-endo-2-(1-(3-(1-ethoxycarbonylmethyl)piperidinylcar-bonyl)amino)propyl-bicyclo(2.2.1)heptan-1-yl)methanesulfonyl)-4-(2-methylphenyl)piperazine]", "values": [{"measurement": "IC50", "result": 0.038, "unit": "µM"}]}, {"compound": "CCOC(=O)C(CC=C1CC2CCC1(CS(=O)(=O)N1CCN(c3ccccc3C)CC1)C2(C)C)(NC(C)=O)C(=O)OCC", "note": "(stereo not drawn) [Example 64, 1-((7,7-Dimethyl-2-(3-acetamido-3,3'-di(ethoxycarbonyl))propylidine-bicyclo(2.2.1)heptan-1-yl)methanesulfonyl)-4-(2-methylphenyl)piperazine]", "values": [{"measurement": "inhibition at 1 µM", "result": 78, "unit": "%"}]}, {"compound": "Cc1ccccc1N1CCN(S(=O)(=O)CC23CCC(CC2N)C3(C)C)CC1", "note": "(stereo not drawn) [Example 70, 1-((7,7-Dimethyl-2-endo-amino-bicyclo(2.2.1)heptan-1-yl)methanesulfonyl)-4-(2-methylphenyl)-piperazine]", "values": [{"measurement": "inhibition at 0.1 µM", "result": 91, "unit": "%"}]}, {"compound": "Cc1ccccc1N1CCN(C(=O)C2C3CCC(C)(C2NC(=O)C(NC(=O)OC(C)(C)C)C(C)O)C3(C)C)CC1", "note": "(stereo not drawn) [Example 19, 1-(2-methylphenyl)-4-[(4,7,7-trimethyl-3-(2-(t-butoxycarbonyl)amino-3-hydroxy)butyrylaminobicyclo[2.2.1]hept-2-yl)carbonyl]-piperazine]", "values": [{"measurement": "IC50", "result": 0.16, "unit": "µM"}]}, {"compound": "Cc1ccccc1N1CCN(S(=O)(=O)C[C@]23CC[C@H](CC2=CCN)C3(C)C)CC1", "note": "[Example 52, 1-((7,7-dimethyl-2-(2-amino)ethylidine-bicyclo-(2.2.1)heptan-1-yl)methanesulfonyl)-4-(2-methyl-phenyl)piperazine]", "values": [{"measurement": "inhibition at 0.1 µM", "result": 36, "unit": "%"}]}, {"compound": "Cc1ccccc1N1CCN(C(=O)C2(CC(=O)O)C(=O)C3(C)CCC2C3(C)C)CC1", "note": "(stereo not drawn) [Example 4, 1-(2-methylphenyl)-4-[(4,7,7-trimethyl-3-oxo-2-carboxymethyl-bicyclo[2.2.1]hept-2-yl)carbonyl]-piperazine]", "values": [{"measurement": "inhibition at 1 µM", "result": 53, "unit": "%"}]}, {"compound": "Cc1ccccc1N1CCN(S(=O)(=O)CC23CCC(CC2NC(=O)[C@@H](N)CCS(C)(=O)=O)C3(C)C)CC1", "note": "(stereo partly drawn) [Example 72, 1-((7,7-Dimethyl-2-endo-(2S-amino-4-(methylsulfonyl)-butyramido)bicyclo(2.2.1)heptan-1-yl)methanesulfonyl)-4-(2-methylphenyl)piperazine]", "values": [{"measurement": "IC50", "result": 0.0012, "unit": "µM"}]}, {"compound": "Cc1ccccc1N1CCN(S(=O)(=O)CC23CCC(CC2NC(=O)OCc2ccccc2)C3(C)C)CC1", "note": "(stereo not drawn) [Example 75, 1-((7,7-Dimethyl-2-endo-benzyloxycarbonylamino-bicyclo(2.2.1)heptan-1-yl)methanesulfonyl)-4-(2-methyl-phenyl)-piperazine]", "values": [{"measurement": "inhibition at 1 µM", "result": 35, "unit": "%"}]}, {"compound": "COC(=O)C1CC(=O)N(CC(C)C2(O)CC3CCC2(CS(=O)(=O)N2CCN(c4ccccc4C)CC2)C3(C)C)C1", "note": "(stereo not drawn) [Example 62, 1-((7,7-dimethyl-2-exo-hydroxy-2-endo-2-(1-(3-methoxycarbonyl)-2-pyrrolidinon-1-yl)propylbicyclo-(2.2.1)heptan-1-yl)methanesulfonyl)-4-(2-methylphenyl)piperazine]", "values": [{"measurement": "inhibition at 0.1 µM", "result": 37, "unit": "%"}]}, {"compound": "COC(=O)C1=C[C@H]2CC[C@]1(CS(=O)(=O)N1CCN(c3ccccc3C)CC1)C2(C)C", "note": "[Example 56, 1-((7,7-Dimethyl-2-methoxycarbonyl-bicyclo(2.2.1)hept-2-en-1-yl)methanesulfonyl)-4-(2-methylphenyl)-piperazine]", "values": [{"measurement": "inhibition at 1 µM", "result": 38, "unit": "%"}]}, {"compound": "Cc1ccccc1N1CCN(S(=O)(=O)CC23CCC(CC2C(=O)NCCc2c[nH]cn2)C3(C)C)CC1", "note": "(stereo not drawn) [Example 61, 1-((7,7-Dimethyl-2-endo-(4-imidazolyl)ethylamino-carbonyl-bicyclo-(2.2.1)heptan-1-yl)methanesulfonyl)-4-(2-methylphenyl)piperazine]", "values": [{"measurement": "IC50", "result": 0.035, "unit": "µM"}]}, {"compound": "Cc1ccccc1N1CCN(S(=O)(=O)C[C@]23CC[C@H](C[C@]2(O)CNCC(C)C)C3(C)C)CC1", "note": "[Example 55, 1-((7,7-Dimethyl-2-exo-hydroxy-2-endo-isobutylamino-methylbicyclo(2.2.1)heptan-1-yl)methanesulfonyl)-4-(2-methylphenyl)piperazine]", "values": [{"measurement": "inhibition at 1 µM", "result": 72, "unit": "%"}]}, {"compound": "Cc1ccccc1N1CCN(S(=O)(=O)CC23CCC(CC2(O)C(C)CNCc2ccncc2)C3(C)C)CC1", "note": "(stereo not drawn) [Example 63, 1-((7,7-Dimethyl-2-exo-hydroxy-2-endo-2-(1-(4-pyridinyl)methylamino)-propyl-bicyclo(2.2.1)heptan-1-yl)methanesulfonyl)-4-(2-methylphenyl)-piperazine]", "values": [{"measurement": "inhibition at 0.1 µM", "result": 35, "unit": "%"}]}, {"compound": "Cc1ccccc1N1CCN(S(=O)(=O)CC23CCC(C=C2C(=O)NCCc2c[nH]cn2)C3(C)C)CC1", "note": "(stereo not drawn) [Example 58, 1-((7,7-Dimethyl-2-(4-imidazolyl)ethylaminocarbonyl-bicyclo(2.2.1)hept-2-en-1-yl)methanesulfonyl)-4-(2-methylphenyl)piperazine]", "values": [{"measurement": "IC50", "result": 0.12, "unit": "µM"}]}, {"compound": "COC(=O)CCN(CCC(=O)OC)CC(C)[C@@]1(O)C[C@H]2CC[C@]1(CS(=O)(=O)N1CCN(c3ccccc3C)CC1)C2(C)C", "note": "(stereo partly drawn) [Example 47, 1-((7,7-dimethyl-2-exo-hydroxy-2-endo-2-(1-bis-(2-methoxycarbonylethyl)amino)propyl-bicyclo(2.2.1)heptan-1-yl)methanesulfonyl)-4-(2-methylphenyl)piperazine]", "values": [{"measurement": "IC50", "result": 0.054, "unit": "µM"}]}, {"compound": "Cc1ccccc1N1CCN(C(=O)C2C3CCC(C)(C2NC(=O)[C@@H]2CCCN2)C3(C)C)CC1", "note": "(stereo partly drawn) [Example 15, 1-(2-methylphenyl)-4-[(4,7,7-trimethyl-3-prolylaminobicyclo[2.2.1]hept-2-yl)carbonyl]-piperazine]", "values": [{"measurement": "IC50", "result": 0.06, "unit": "µM"}]}, {"compound": "Cc1ccccc1N1CCN(S(=O)(=O)CC23CCC(CC2NC(=O)[C@H](CCS(C)(=O)=O)NC(=O)Cc2c[nH]cn2)C3(C)C)CC1", "note": "(stereo partly drawn) [Example 73, 1-((7,7-Dimethyl-2-endo-(2S-(imidazol-4-ylacetyl-amino)-4-(methylsulfonyl)butyramido)-bicyclo(2.2.1)-heptan-1-yl)methanesulfonyl)-4-(2-methylphenyl)-piperazine]", "values": [{"measurement": "IC50", "result": 0.0054, "unit": "µM"}]}, {"compound": "Cc1ccccc1N1CCN(S(=O)(=O)CC23CCC(CC2C(=O)O)C3(C)C)CC1", "note": "(stereo not drawn) [Example 60, 1-((7,7-Dimethyl-2-endo-carboxy-bicyclo(2.2.1)heptan-1-yl)methanesulfonyl)-4-(2-methylphenyl)piperazine]", "values": [{"measurement": "inhibition at 0.1 µM", "result": 34, "unit": "%"}]}, {"compound": "Cc1ccccc1N1CCN(S(=O)(=O)CC23CCC(CC2N(C)C(=O)[C@H](CCS(C)(=O)=O)N(C)C)C3(C)C)CC1", "note": "(stereo partly drawn) [Example 78, 1-((7,7-Dimethyl-2-endo-methyl(2S-dimethylamino-4-(methylsulfonyl)butanoyl)amino-bicyclo(2.2.1)heptan-1-yl)methanesulfonyl)-4-(2-methylphenyl)-piperazine]", "values": [{"measurement": "IC50", "result": 0.11, "unit": "µM"}]}, {"compound": "Cc1ccccc1N1CCN(C(=O)C2C(=NO)C3(C)CCC2C3(C)C)CC1", "note": "(stereo not drawn) [Example 6, 1-(2-methylphenyl)-4-[(4,7,7-trimethyl-3-hydroxyimino-bicyclo[2.2.1]-hept-2-endo-yl)carbonyl]-piperazine]", "values": [{"measurement": "IC50", "result": 0.082, "unit": "µM"}]}, {"compound": "Cc1ccccc1N1CCN(S(=O)(=O)CC23CCC(CC2NC(=O)[C@H](CCS(C)(=O)=O)NC(=O)OC(C)(C)C)C3(C)C)CC1", "note": "(stereo partly drawn) [Example 71, 1-((7,7-Dimethyl-2-endo-(2S-(tert-butyloxycarbonyl-amino)-4-(methylsulfonyl)-butyramido)-bicyclo(2.2.1)-heptan-1-yl)methanesulfonyl)-4-(2-methylphenyl)-piperazine]", "values": [{"measurement": "IC50", "result": 0.0077, "unit": "µM"}]}, {"compound": "Cc1ccccc1N1CCN(C(=O)C2C3CCC(C)(C2NC(=O)C(O)CO)C3(C)C)CC1", "note": "(stereo not drawn) [Example 18, 1-(2-methylphenyl)-4-[(4,7,7-trimethyl-3-(2,3-dihydroxy)propionylaminobicyclo[2.2.1]hept-2-yl)carbonyl]-piperazine]", "values": [{"measurement": "IC50", "result": 0.12, "unit": "µM"}]}, {"compound": "Cc1ccccc1N1CCN(C(=O)C2C3CCC(C)(C2NC(=O)C(CCS(C)(=O)=O)NC(=O)OC(C)(C)C)C3(C)C)CC1", "note": "(stereo not drawn) [Example 11, 1-(2-methylphenyl)-4-[(4,7,7-trimethyl-3-endo-(4-methylsulfonyl-2-t-butoxycarbonylamino)butanoylaminobicyclo[2.2.1]hept-2-endo-yl)carbonyl]-piperazine]", "values": [{"measurement": "IC50", "result": 1.1, "unit": "µM"}]}, {"compound": "Cc1ccccc1N1CCN(S(=O)(=O)C[C@]23CC[C@H](C=C2C(=O)O)C3(C)C)CC1", "note": "[Example 57, 1-((7,7-Dimethyl-2-carboxy-bicyclo(2.2.1)hept-2-en-1-yl)methanesulfonyl)-4-(2-methylphenyl)piperazine]", "values": [{"measurement": "inhibition at 1 µM", "result": 78, "unit": "%"}]}, {"compound": "Cc1ccccc1N1CCN(C(=O)C2C3CCC(C)(C2NC(=O)C(N)CCS(C)(=O)=O)C3(C)C)CC1", "note": "(stereo not drawn) [Example 10, 1-(2-methylphenyl)-4-[(4,7,7-trimethyl-3-exo-(4-methylsulfonyl-2-amino)butanoylaminobicyclo[2.2.1]hept-2-endo-yl)carbonyl]-piperazine]", "values": [{"measurement": "inhibition at 1 µM", "result": 75, "unit": "%"}]}, {"compound": "Cc1ccccc1N1CCN(S(=O)(=O)CC23CCC(CC2=O)C3(C)C)C(C)C1=O", "note": "(stereo not drawn) [Example 67, 1-((7,7-Dimethyl-2-oxo-bicyclo(2.2.1)heptan-1-yl)-methanesulfonyl)-4-(2-methylphenyl)-2-methyl-3-piperazinone]", "values": [{"measurement": "inhibition at 1 µM", "result": 37, "unit": "%"}]}, {"compound": "Cc1ccccc1N1CCN(S(=O)(=O)CC23CCC(CC2(O)C(C)CNC(=O)C2CCN(CCC(=O)O)CC2)C3(C)C)CC1", "note": "(stereo not drawn) [Example 92, 1-((7,7-Dimethyl-2-exo-hydroxy-2-endo-2-(1-(4-(1-carboxyethyl)piperidinylcarbonyl)amino)propyl-bicyclo-(2.2.1)heptan-1-yl)methanesulfonyl)-4-(2-methylphenyl)piperazine]", "values": [{"measurement": "inhibition at 0.1 µM", "result": 66, "unit": "%"}]}]}
